Key:
RhoE promoter = RhoE promoter luc2 luciferase reporter screen for inducers of RhoE expression; format: cell-based; details: luminescence at 24 hours
Protocol: To isolate compounds that can activate RhoE pathway in keratinocytes and protect against UVB exposure, a robust and sensitive chemical genetics approach was developed for the identification of small molecules that induce RhoE expression. Briefly, a reporter construct was created that included the RhoE promoter operatively linked to the luc2 luciferase reporter gene (FIG. 1A). Stable cell lines were produced that expressed the reporter construct, and the cells were plated in 384 well plates at ˜10,000 cells per well. The library test compounds were added to the plated cells at two replicates per compound, and the cells were incubated with the compounds for 24 hours. Luminescence was measured at 24 hours using a plate reader. The data were analyzed using Spotfire.

RhoE = test: Western blot of RhoE and p53 expression after kaempferol treatment; format: cell-based; details: FIG. 3; relative to p53 expression
Description: FIG. 3 is a Western blot depicting RhoE and p53 expression following treatment with the indicated amounts of kaempferol.

[1] = system: HaCaT human keratinocyte cells; test: UVB-induced cell death in HaCaT keratinocytes; format: cell-based; details: 1 and 2.5 μM; UVB 30 mJ/cm^2; 24 hours later; FIG. 4
Protocol: To determine whether RhoE inducing compounds have the protective effect on the UVB damage-mediated cell death, kaempferol-treated (1 and 2.5 μM) HaCaT human keratinocyte cells were exposed to UVB (30 mJ/cm^2), and 24 hours later cell death rate was examined (FIG. 4).

UVB damaged mouse skin = UVB damaged mouse skin treated topically (TUNEL, CPD, phospho-H2AX, RhoE staining); format: in vivo
Protocol: Next, it was investigated whether kaempferol has any protective effect and or DNA repair potential on UVB damaged mouse skin. The dorsal hair of 8-week-old, C57BL/6 mice was trimmed and fine hair was removed by application of a hair-remover, 2 days before UVB exposure. Restrained mice were UVB irradiated at 120 mJ/cm^2 and treated with 0.5 mM kaempferol in 50 μl DMSO or DMSO control. The skin was removed from euthanized mice at various times after UVB exposure, fixed immediately in 4% neutral buffered paraformaldehyde, embedded in OCT, and sectioned at 8-μm thickness. Apoptotic cells were detected in skin sections harvested 16 hours after exposure to UVB, by the terminal nucleotidyl transferase-mediated nick end labeling (TUNEL) assay (Roche Applied Science, Germany) according to the manufacturer's instructions. […] The levels of an activated form of H2AX (Ser139) that is known to be activated and bound at the sites of DNA damage in response to UVB damage were also measured by staining with Anti-Phospho-H2AX (Ser139) antibodies (Upstate Cell Signaling Solutions, New York).

SMILES: O=c1c(O)c(-c2ccc(O)cc2)oc2cc(O)cc(O)c12 [Kaempferol]
- Composite Z value (induction of RhoE expression) (RhoE promoter; Table 1, two replicates per compound): 6.2959
- Composite Z (RhoE promoter; Table 2, two replicates): 6.2959
- RhoE expression (Western blot) (RhoE): able to activate RhoE expression in a p53-independent manner
- UVB-induced cell death rate [1]: suppression of UVB-induced cell death
- Apoptosis in epidermis (TUNEL) (UVB damaged mouse skin; 0.5 mM in 50 μl DMSO, UVB 120 mJ/cm^2, 16 hours after exposure, vs DMSO, FIG. 5): inhibited apoptosis induced by UVB damage in epidermis
- Cyclobutane pyrimidine dimer (CPD) formation in epidermis (TDM-2 staining) (UVB damaged mouse skin; 0.5 mM, UVB 120 mJ/cm^2, FIGS. 6A-6C): suppressed pyrimidine dimmer formation
- Levels of activated form of H2AX (Ser139) in skin (UVB damaged mouse skin; 0.5 mM, UVB 120 mJ/cm^2, FIGS. 7A-7C): significantly decreased
- RhoE expression in suprabasal area of epidermis (UVB damaged mouse skin; 0.5 mM, UVB exposure, FIG. 8): enhanced

Source: patent publication US20110091387A1, “METHODS AND COMPOSITIONS FOR REDUCING SKIN DAMAGE” (THE GENERAL HOSPITAL CORPORATION, priority 2007, published 2011)
